Laboratory results from US20260226493A1, “HERBICIDE RESISTANT PLANTS” (SYNGENTA CROP PROTECTION AG, priority 2023, published 2026).

Tests used:
Assay type in all cases: biochemical
[1] = target: T1, Arabidopsis thaliana BIO3-BIO1 (BioDA) mutants (Arabidopsis thaliana, UniProt B0F481); test: BIO3-BIO1 mutant enzyme activity in the presence of herbicide, percentage inhibition (fluorometric DAPA assay)
T1 construct: with the predicted N-terminal mitochondrial transit peptide removed; 6xHis-tag (N); thrombin cleavage site (N); made in house; host or cells: E. coli BL21 (DE3) bioA
How it was run: (§1)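 His-tagged Arabidopsis BIO3-BIO1 mutants, expressed in E. coli and purified by IMAC and SEC, were preincubated at 50 nM with herbicide for 10 min at 20 °C in EPPS pH 8.6 with pyridoxal phosphate. Reaction with 100 μM spermidine and 20 μM KAPA ran 75 min at 20 °C; DAPA was derivatised with o-phthalaldehyde and read at ex 410/em 470 nm. […].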

[2] = target: T2, Arabidopsis thaliana BIO3-BIO1 (BioDA) mutants (Arabidopsis thaliana, UniProt B0F481, F348T); test: as above; conditions: read-out: percentage inhibition
T2 construct: with the predicted N-terminal mitochondrial transit peptide removed; 6xHis-tag (N); thrombin cleavage site (N); made in house; host or cells: E. coli BL21 (DE3) bioA
How it was run: as §1

[3] = system: Ostreococcus tauri BioDA A374D; test: BioDA enzyme activity with DMSO or herbicide in vitro
[4] = system: Ostreococcus tauri BioDA F332A; test: as above
[5] = system: Ostreococcus tauri BioDA P407A; test: as above
[6] = target: T3, Arabidopsis thaliana BIO3-BIO1 (BioDA) mutants (Arabidopsis thaliana, UniProt B0F481, S509V); test: BIO3-BIO1 mutant enzyme activity in the presence of herbicide, percentage inhibition (fluorometric DAPA assay); conditions: read-out: percentage inhibition
T3 construct: with the predicted N-terminal mitochondrial transit peptide removed; 6xHis-tag (N); thrombin cleavage site (N); made in house; host or cells: E. coli BL21 (DE3) bioA
How it was run: as §1

[7] = target: T4, Arabidopsis thaliana BIO3-BIO1 (BioDA) mutants (Arabidopsis thaliana, UniProt B0F481, S704P); test: as above; conditions: read-out: percentage inhibition
T4 construct: with the predicted N-terminal mitochondrial transit peptide removed; 6xHis-tag (N); thrombin cleavage site (N); made in house; host or cells: E. coli BL21 (DE3) bioA
How it was run: as §1

[8] = read-out: percentage inhibition

T2 sequence (B0F481 23-833 F348T): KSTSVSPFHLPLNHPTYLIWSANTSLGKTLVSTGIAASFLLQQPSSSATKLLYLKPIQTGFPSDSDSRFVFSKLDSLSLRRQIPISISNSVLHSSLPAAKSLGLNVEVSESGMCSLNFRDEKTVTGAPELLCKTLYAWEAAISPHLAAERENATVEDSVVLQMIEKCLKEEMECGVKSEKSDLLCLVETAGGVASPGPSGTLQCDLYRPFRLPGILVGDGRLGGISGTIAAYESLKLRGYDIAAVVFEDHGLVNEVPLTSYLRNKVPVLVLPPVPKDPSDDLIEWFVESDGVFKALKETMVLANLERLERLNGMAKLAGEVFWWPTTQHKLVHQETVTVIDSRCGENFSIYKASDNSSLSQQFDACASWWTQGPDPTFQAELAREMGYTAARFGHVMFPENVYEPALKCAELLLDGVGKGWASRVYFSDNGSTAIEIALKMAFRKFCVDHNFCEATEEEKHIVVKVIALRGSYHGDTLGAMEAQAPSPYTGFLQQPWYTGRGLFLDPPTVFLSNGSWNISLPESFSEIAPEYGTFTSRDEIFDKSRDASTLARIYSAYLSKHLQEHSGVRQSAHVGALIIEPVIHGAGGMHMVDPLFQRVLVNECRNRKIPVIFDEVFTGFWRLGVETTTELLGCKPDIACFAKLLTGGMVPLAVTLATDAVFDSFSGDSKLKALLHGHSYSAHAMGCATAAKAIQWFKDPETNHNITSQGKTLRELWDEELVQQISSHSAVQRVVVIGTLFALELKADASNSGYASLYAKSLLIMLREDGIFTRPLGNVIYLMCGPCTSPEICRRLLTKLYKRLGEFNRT
T4 sequence (B0F481 23-833 S704P): as the sequence (B0F481 23-833 F348T) above, with T326F, S682P counted along it
T1 sequence (B0F481 23-833, change not shown): as the sequence (B0F481 23-833 F348T) above, with T326F counted along it
T3 sequence (B0F481 23-833 S509V): as the sequence (B0F481 23-833 F348T) above, with T326F, S487V counted along it

SMILES | % Inhibition relative to DMSO treatment ([3]; 31 μM) [%] | % Inhibition relative to DMSO treatment ([3]; 500 μM) [%] | % Inhibition relative to DMSO treatment ([4]; 31 μM) [%] | % Inhibition relative to DMSO treatment ([4]; 500 μM) [%] | % Inhibition relative to DMSO treatment ([5]; 31 μM) [%] | % Inhibition relative to DMSO treatment ([5]; 500 μM) [%] | inhibition at 0.2 µM [2] [%] | inhibition at 1 µM [2] [%] | inhibition at 5 µM [2] [%] | inhibition at 0.2 µM [6] [%] | inhibition at 1 µM [6] [%] | inhibition at 5 µM [6] [%] | inhibition at 0.2 µM [7] [%] | inhibition at 1 µM [7] [%] | inhibition at 5 µM [7] [%] | other results
CCn1c(Cn2ccc(C(F)(F)F)n2)cc(=O)c(C(=O)O)c1-c1ccc(Cl)c(Cl)c1 [Compound L, 2-(3,4-dichlorophenyl)-1-ethyl-4-oxo-6-[[3-(trifluoromethyl)pyrazol-1-yl]methyl]pyridine-3-carboxylic acid] | 98 | 93 | 4 | 53 | 58 | 94 | – | – | – | – | – | – | – | – | – | inhibition at 0.01 µM [1, 8]: 6%; inhibition at 0.075 µM [1, 8]: 44%; inhibition at 0.5 µM [1, 8]: 83%; inhibition at 0.01 µM [2]: 1%; inhibition at 0.075 µM [2]: 3%; inhibition at 0.5 µM [2]: 7%
CCn1c(C)c(-c2ccc(F)cc2F)c(=O)c(C(=O)O)c1-c1ccc(Cl)c(Cl)c1 [Compound C, 2-(3,4-dichlorophenyl)-5-(2,4-difluorophenyl)-1-ethyl-6-methyl-4-oxo-pyridine-3-carboxylic acid] | – | – | – | – | – | – | 0 | 4 | 0 | 17 | 30 | 94 | 1 | 23 | 60 | –
CC(O)C(N)CCCCC(=O)O.Cl (centres unmarked) [Compound B, [5-carboxy-1-(1-hydroxyethyl)pentyl]ammonium chloride] | – | – | – | – | – | – | – | – | – | – | – | – | – | – | – | % Inhibition relative to DMSO treatment ([3]; 200 μM): 95%; % Inhibition relative to DMSO treatment ([4]; 200 μM): 66%; % Inhibition relative to DMSO treatment ([5]; 200 μM): 46%
CCn1c(-c2ccc(Cl)c(Cl)c2)c(C(=O)O)c(=O)c2cc(F)ccc21 [Compound M, 2-(3,4-dichlorophenyl)-1-ethyl-6-fluoro-4-oxo-quinoline-3-carboxylic acid] | 94 | 93 | 7 | 46 | 37 | 92 | 15 | 2 | 7 | 22 | 26 | 88 | 0 | 16 | 47 | percentage inhibition ([1]; WT (SEQ ID NO 294), 0.1 μM herbicide): 23%; inhibition at 0.2 µM [1, 8]: 23%
CCn1c(C)c(-c2cc(OC(F)(F)F)ccc2Cl)c(=O)c(C(=O)O)c1-c1ccc(Cl)c(Cl)c1 [Compound D, 5-[2-chloro-5-(trifluoromethoxy)phenyl]-2-(3,4-dichlorophenyl)-1-ethyl-6-methyl-4-oxo-pyridine-3-carboxylic acid] | – | – | – | – | – | – | – | – | – | – | – | – | – | – | – | % Inhibition relative to DMSO treatment ([3]; 0.5 μM): 82%; % Inhibition relative to DMSO treatment ([3]; 5 μM): 95%; % Inhibition relative to DMSO treatment ([4]; 0.5 μM): 0%; % Inhibition relative to DMSO treatment ([4]; 5 μM): 7%; % Inhibition relative to DMSO treatment ([5]; 0.5 μM): 4%; % Inhibition relative to DMSO treatment ([5]; 5 μM): 26%
CCOC(=O)c1nn(-c2ccc3c(c2)OC(F)(F)C(F)(F)O3)c2cccc(C(C)=O)c2c1=O [Compound A, ethyl 5-acetyl-4-oxo-1-(2,2,3,3-tetrafluoro-1,4-benzodioxin-6-yl)cinnoline-3-carboxylate] | – | – | – | – | – | – | – | 0 | – | – | 6 | – | – | 56 | – | –
